ChEMBL document CHEMBL1138508, “Design, synthesis, and pharmacological effects of a cyclization-activated steroid prodrug for colon targeting in inflammatory bowel disease” (J Med Chem, 2009)
One block for each compound: values may come before it. Calls of active or inactive are those of the source. No cut-off for these calls is given here.

Legend:
[1] = Chemical stability assessed as half life at neutrality pH; assay type: physicochemical
[2] = Stability assessed as half life at pH 8 by HPLC; assay type: physicochemical; conditions: buffer
[3] = Stability assessed as half life at pH 7.4 by HPLC; assay type: physicochemical; conditions: buffer
[4] = Stability assessed as half life at pH 4 by HPLC; assay type: physicochemical; conditions: buffer
[5] = Stability assessed as half life at pH 2.6 by HPLC; assay type: physicochemical; conditions: buffer
Mus musculus [6] = assay: Inhibition of dextran sodium sulfate-induced ulcerative colitis in po dosed BALB/c mouse assessed as decrease in body weight loss administered twice daily for 6 days relative to control; assay type: functional, organism-based
Mus musculus [7] = assay: Inhibition of dextran sodium sulfate-induced ulcerative colitis in po dosed BALB/c mouse assessed as decrease in disease activity index administered twice daily for 6 days relative to control; assay type: functional, organism-based
Mus musculus [8] = assay: Inhibition of dextran sodium sulfate-induced ulcerative colitis in po dosed BALB/c mouse assessed as decrease in colon shortening administered twice daily for 6 days relative to control; assay type: functional, organism-based
Mus musculus [9] = assay: Toxicity in dextran sodium sulfate treated po dosed BALB/c mouse ulcerative colitis model assessed as reduction in thymus weight to body weight ratio administered twice daily for 6 days relative to control; assay type: organism-based; conditions: in vivo, 144 h
[10] = Apparent permeability from basolateral to apical side in human Caco-2 cells by HPLC; assay type: ADME, cell-based
Mus musculus [11] = assay: Inhibition of dextran sodium sulfate-induced ulcerative colitis in BALB/c mouse assessed as decrease in body weight loss at 5 mg/kg, po twice daily for 6 days relative to control; assay type: functional, organism-based; set-up: dose 5 mg/kg
Mus musculus [12] = assay: Inhibition of dextran sodium sulfate-induced ulcerative colitis in BALB/c mouse assessed as decrease in disease activity index at 5 mg/kg, po twice daily for 6 days relative to control; assay type: functional, organism-based; set-up: dose 5 mg/kg
Mus musculus [13] = assay: Inhibition of dextran sodium sulfate-induced ulcerative colitis in BALB/c mouse assessed as decrease in colon shortening at 5 mg/kg, po twice daily for 6 days relative to control; assay type: functional, organism-based; set-up: dose 5 mg/kg
Mus musculus [14] = assay: Toxicity in dextran sodium sulfate treated BALB/c mouse ulcerative colitis model assessed as reduction in thymus weight to body weight ratio at 5 mg/kg, po administered twice daily for 6 days relative to control; assay type: organism-based; set-up: dose 5 mg/kg, route oral; conditions: in vivo, 144 h
[15] = Stability in human gastric juice after 24 hrs; assay type: ADME, tissue-based
[16] = Stability at pH 3.4 to 7.4 after 24 hrs; assay type: physicochemical; conditions: buffer, pH 3.4, 24 h
[17] = Stability at pH 8 to 9 after 24 hrs; assay type: physicochemical; conditions: buffer, pH 8, 24 h

half-life [1]: 57 min
Compound: COC(=O)CCc1ccccc1N

Compound: C[C@]12CCC(=O)C=C1CC[C@@H]1[C@@H]2[C@@H](O)C[C@@]2(C)[C@H]1CC[C@]2(O)C(=O)COC(=O)CCc1ccccc1N
half-life [2]: 44 min
half-life [3]: 73 min
half-life [4]: 30 min
half-life [5]: 54 min

Compound: C[C@]12C=CC(=O)C=C1CC[C@@H]1[C@@H]2[C@@H](O)C[C@@]2(C)[C@H]1CC[C@]2(O)C(=O)CO [PREDNISOLONE]
Activity (Mus musculus [6]): Active
Activity (Mus musculus [7]): Active
Activity (Mus musculus [8]): Active
Activity (Mus musculus [9]): Toxic

Compound: C[C@]12C=CC(=O)C=C1CC[C@@H]1[C@@H]2[C@@H](O)C[C@@]2(C)[C@H]1CC[C@]2(O)C(=O)COC(=O)CCc1ccccc1/N=N/c1ccc(O)c(C(=O)O)c1
Papp B→A [10]: 14 ×10⁻⁶ cm/s
Activity (Mus musculus [11]): Active
Activity (Mus musculus [12]): Active
Activity (Mus musculus [13]): Active
Activity (Mus musculus [14]): Non-toxic
Stability [15]: Stable
Stability [16]: Stable
Stability [17]: Unstable

Compound: C[C@]12C=CC(=O)C=C1CC[C@@H]1[C@@H]2[C@@H](O)C[C@@]2(C)[C@H]1CC[C@]2(O)C(=O)COC(=O)Cc1ccccc1/N=N/c1ccc(O)c(C(=O)O)c1
Activity (Mus musculus [11]): inactive
Activity (Mus musculus [12]): inactive
Activity (Mus musculus [13]): inactive
Activity (Mus musculus [14]): Non-toxic
